Consider 17 molecules from ChEMBL document CHEMBL4368868, “Selected aryl thiosemicarbazones as a new class of multi-targeted monoamine oxidase inhibitors” (Medchemcomm, 2018).

Where only a bound is given, the exact number is not on record here.

Data set [1] addresses T1, Amine oxidase [flavin-containing] A (Homo sapiens, UniProt P21397).
T1 sequence (P21397 whole entry): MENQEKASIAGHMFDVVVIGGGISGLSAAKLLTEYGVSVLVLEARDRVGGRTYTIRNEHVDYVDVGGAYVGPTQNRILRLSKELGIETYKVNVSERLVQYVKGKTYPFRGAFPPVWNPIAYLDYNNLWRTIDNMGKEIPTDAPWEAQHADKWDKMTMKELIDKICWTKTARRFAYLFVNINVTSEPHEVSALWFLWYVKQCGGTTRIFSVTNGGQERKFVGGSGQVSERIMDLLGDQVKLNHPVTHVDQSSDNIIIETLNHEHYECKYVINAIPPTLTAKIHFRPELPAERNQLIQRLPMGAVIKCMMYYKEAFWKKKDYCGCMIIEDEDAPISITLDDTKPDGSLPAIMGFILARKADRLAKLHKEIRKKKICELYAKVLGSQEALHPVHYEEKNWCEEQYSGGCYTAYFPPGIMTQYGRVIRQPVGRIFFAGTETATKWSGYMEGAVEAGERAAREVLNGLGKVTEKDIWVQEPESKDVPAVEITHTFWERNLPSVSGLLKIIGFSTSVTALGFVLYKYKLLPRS
Kind of data set: Inhibition of MAOA (unknown origin) assessed as residual activity at 10 uM using kynuramine as substrate preincubated for 30 mins followed by substrate addition relative to control. The note with it: read-out: Activity.

In data set [2] the target is T2, Amine oxidase [flavin-containing] B (Homo sapiens, UniProt P27338).
T2 sequence (P27338 whole entry): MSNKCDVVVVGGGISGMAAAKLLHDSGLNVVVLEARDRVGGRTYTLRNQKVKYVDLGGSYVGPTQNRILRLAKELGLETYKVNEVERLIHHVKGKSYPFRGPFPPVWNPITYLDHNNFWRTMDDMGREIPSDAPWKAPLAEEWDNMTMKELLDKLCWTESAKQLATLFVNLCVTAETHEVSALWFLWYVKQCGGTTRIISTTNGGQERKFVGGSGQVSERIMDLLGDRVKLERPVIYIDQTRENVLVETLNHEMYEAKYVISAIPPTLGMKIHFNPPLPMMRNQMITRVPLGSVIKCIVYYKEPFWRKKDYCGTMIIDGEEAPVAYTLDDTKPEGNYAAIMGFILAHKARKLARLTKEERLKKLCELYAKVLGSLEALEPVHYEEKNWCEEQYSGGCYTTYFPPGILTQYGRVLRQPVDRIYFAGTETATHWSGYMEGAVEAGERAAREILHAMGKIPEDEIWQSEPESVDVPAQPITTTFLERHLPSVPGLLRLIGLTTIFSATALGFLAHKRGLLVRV
As to the kind of experiment: Inhibition of MAOB (unknown origin) assessed as residual activity at 10 uM using benzylamine as substrate preincubated for 30 mins followed by substrate addition relative to control. As to conditions: read-out: Activity.

Data set [3] addresses T2, Amine oxidase [flavin-containing] B.
For data set [4], the target named is T1, Amine oxidase [flavin-containing] A.
In another data set the target is Acetylcholinesterase (Electrophorus electricus, UniProt O42275).
The species entered for a further data set is Homo sapiens. Kind of data set: Selectivity index, ratio of IC50 for MAOA (unknown origin) to IC50 for MAOB (unknown origin).
Data set [5] is described as follows: Permeability of the compound in PBS/EtOH at 100 ug/ml incubated for 16 hrs by PAMPA. It counts as ADME. The note with it: read-out: permeability. In general terms: The PAMPA barrier holds no transporters, so it reflects passive diffusion.
The target in data set [6] is T2, Amine oxidase [flavin-containing] B. Kind of data set: Reversible inhibition of MAOB (unknown origin) assessed as residual enzyme activity at 0.08 uM using benzylamine as substrate measured after 30 mins relative to control. The note with it: 0.5 h, read-out: Activity.
Data set [7] shares this target. Kind of data set: Reversible inhibition of MAOB (unknown origin) assessed as residual enzyme activity at 0.08 uM using benzylamine as substrate pre-incubated for 30 mins followed by dialysis with pH 7.2 sodium phosphate buffer relative to control. As to conditions: read-out: Activity.
Data set [8] has the same target. Kind of data set: Competitive inhibition of MAOB (unknown origin) using varying levels of benzylamine as substrate preincubated for 15 mins followed by substrate addition and measured by Lineweaver-burk plot analysis.
Data set [9] has the same target. As to the kind of experiment: Reversible inhibition of MAOB (unknown origin) assessed as residual enzyme activity at 0.54 uM using benzylamine as substrate measured after 30 mins relative to control. The note with it: 0.5 h, read-out: Activity.
For data set [10] the target is unchanged. Kind of data set: Reversible inhibition of MAOB (unknown origin) assessed as residual enzyme activity at 0.54 uM using benzylamine as substrate pre-incubated for 30 mins followed by dialysis with pH 7.2 sodium phosphate buffer relative to control. The note with it: read-out: Activity.
Data set [11] shares this target. The note with it: 0.5 h.
Data set [12] addresses T1, Amine oxidase [flavin-containing] A. Kind of data set: Competitive inhibition of MAOA (unknown origin) using varying levels of kynuramine as substrate preincubated for 15 mins followed by substrate addition and measured by Lineweaver-burk plot analysis.
The target is the same in data set [13]. As to the kind of experiment: Reversible inhibition of MAOA (unknown origin) assessed as residual enzyme activity at 3.6 uM using kynuramine as substrate measured after 30 mins relative to control. The note with it: 0.5 h, read-out: Activity.
Data set [14] shares this target. Kind of data set: Reversible inhibition of MAOA (unknown origin) assessed as residual enzyme activity at 3.6 uM using kynuramine as substrate pre-incubated for 30 mins followed by dialysis with pH 7.2 sodium phosphate buffer relative to control. The note with it: read-out: Activity.
For data set [15] the target is unchanged. Kind of data set: Reversible inhibition of MAOA (unknown origin) assessed as residual enzyme activity at 2 uM using kynuramine as substrate measured after 30 mins relative to control. As to conditions: 0.5 h, read-out: Activity.
Data set [16] shares this target. Kind of data set: Reversible inhibition of MAOA (unknown origin) assessed as residual enzyme activity at 2 uM using kynuramine as substrate pre-incubated for 30 mins followed by dialysis with pH 7.2 sodium phosphate buffer relative to control. As to conditions: read-out: Activity.
Data set [17] shares this target. Kind of data set: Irreversible inhibition of MAOA (unknown origin) assessed as residual enzyme activity at 0.014 uM using kynuramine as substrate measured after 30 mins relative to control. The note with it: 0.5 h, read-out: Activity.
Data set [18] has the same target. As to the kind of experiment: Irreversible inhibition of MAOA (unknown origin) assessed as residual enzyme activity at 0.014 uM using kynuramine as substrate pre-incubated for 30 mins followed by dialysis with pH 7.2 sodium phosphate buffer relative to control. The note with it: read-out: Activity.

Usually IC50 stands for the concentration that inhibits the measured activity by half. Broadly, the Ki is a dissociation constant, usually derived from enzyme kinetics or from competition with a known ligand. High values mean lower affinity, low ones higher affinity.

Chain of Acetylcholinesterase (O42275 whole entry): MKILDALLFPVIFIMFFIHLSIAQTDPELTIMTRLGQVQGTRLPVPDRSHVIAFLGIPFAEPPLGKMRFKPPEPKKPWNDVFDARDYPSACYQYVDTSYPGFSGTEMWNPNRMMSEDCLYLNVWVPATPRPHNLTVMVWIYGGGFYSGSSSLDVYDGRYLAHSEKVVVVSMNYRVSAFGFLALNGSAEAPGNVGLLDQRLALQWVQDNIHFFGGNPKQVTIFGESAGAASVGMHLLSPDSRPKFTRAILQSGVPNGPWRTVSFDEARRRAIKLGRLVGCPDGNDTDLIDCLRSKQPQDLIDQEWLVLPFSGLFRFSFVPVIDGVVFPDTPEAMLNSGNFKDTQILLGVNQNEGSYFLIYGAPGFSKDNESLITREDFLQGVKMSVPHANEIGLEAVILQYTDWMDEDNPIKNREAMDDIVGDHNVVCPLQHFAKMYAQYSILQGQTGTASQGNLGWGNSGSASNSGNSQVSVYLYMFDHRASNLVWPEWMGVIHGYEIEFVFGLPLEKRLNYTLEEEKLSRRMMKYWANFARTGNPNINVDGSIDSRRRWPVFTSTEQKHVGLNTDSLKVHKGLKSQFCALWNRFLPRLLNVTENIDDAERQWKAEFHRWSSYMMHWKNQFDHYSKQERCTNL

For the molecule `NC(=S)N/N=C/c1ccc(Cl)cc1`, the activity at 10 µM in data set [1] turned out to be 76%; in data set [2], 60.5%. Besides, the IC50 was over 10 µM in data set [3], over 10 µM in data set [4] and over 40 µM against Acetylcholinesterase.

With `NC(=S)N/N=C/c1ccc(Br)cc1`, the activity at 10 µM in data set [1] was determined as 59.5%; in [2] it was 82.5%. Also, the half-inhibitory concentration (IC50) is over 10 µM in data set [3], over 10 µM in data set [4] and 31.1 µM on Acetylcholinesterase.

As for `NC(=S)N/N=C/c1ccccc1F`, the activity at 10 µM was 77.5% in data set [1] and 33.5% in data set [2]. Also, the values for the IC50 (in data set [3]; in data set [4]; at Acetylcholinesterase) were 7.61 µM, over 10 µM and 30.8 µM, respectively. Also, in the data set filed under Homo sapiens, the Ratio IC50 was over 1.31. For the same molecule, the Papp at 16 h, 100 ug/ml in data set [5] turned out to be 10.3 ×10⁻⁶ cm/s.

As for `NCCNC(=O)c1ccc(Cl)cn1` [LAZABEMIDE], the activity at 0.08 µM in data set [6] came to 29.5%; in data set [7], 86.9%. For the same molecule, in data set [4], the IC50 is over 80 µM.

In the case of `NC(=S)N/N=C/c1cccc(F)c1`, the activity at 10 µM in data set [1] stood at 75.5%; in data set [2] it was 3%. In addition, the values for the IC50 (in data set [3]; in [4]; at Acetylcholinesterase) were 0.27 µM, over 10 µM and 26.6 µM, respectively. The Ratio IC50 in the data set listed under Homo sapiens was over 37. Besides, the affinity in data set [8], expressed as Ki, was 0.12 µM. For the same molecule, the results for the activity at 0.54 µM in [9] and in data set [10] were 27.4% and 81%, respectively. Besides, the Papp at 16 h, 100 ug/ml in data set [5] worked out at 13.1 ×10⁻⁶ cm/s.

Consider `C#CCN(C)Cc1ccccc1` [PARGYLINE], for which the activity at 0.2 µM in data set [11] amounted to 27.9%.

For the molecule `CCc1ccc(/C=N/NC(N)=S)cc1`, the activity at 10 µM in [1] was 36%; in data set [2] it was 86.2%. Further, the concentration for half-maximal inhibition (IC50) is over 10 µM in [3], 5.98 µM in [4] and 26.7 µM at Acetylcholinesterase. For the same molecule, in the data set listed under Homo sapiens, the Ratio IC50 was under 0.6. Also, the Papp at 16 h, 100 ug/ml in [5] worked out at 9.44 ×10⁻⁶ cm/s.

Consider `N/C(S)=N/N=C/c1ccc([N+](=O)[O-])cc1`, for which the activity at 10 µM is 75.5% in data set [1] and 7.5% in data set [2]. For the same molecule, the half-maximal inhibitory concentration (IC50) is 1.43 µM in data set [3], over 10 µM in data set [4] and 15.6 µM against Acetylcholinesterase. The Ratio IC50 in the data set filed under Homo sapiens is over 6.99. For the same molecule, the Papp at 16 h, 100 ug/ml in [5] was 12.8 ×10⁻⁶ cm/s.

Take `COc1ccc(/C=N/NC(N)=S)cc1`: the activity at 10 µM is 37.5% in data set [1] and 82.1% in data set [2]. Further, the results for the IC50 (in [3]; in data set [4]; on Acetylcholinesterase) were over 10 µM, 4.99 µM and 36.1 µM, respectively. Also, the Ratio IC50 in the data set filed under Homo sapiens was under 0.5. The Papp at 16 h, 100 ug/ml in data set [5] was found to be 11.2 ×10⁻⁶ cm/s.

For `NC(=S)N/N=C/c1ccc(F)cc1`, the activity at 10 µM stood at 84.5% in data set [1] and 86.5% in data set [2]. Further, the IC50 was over 10 µM in data set [3], over 10 µM in [4] and 37.9 µM against Acetylcholinesterase.

With `CN(C)c1ccc(/C=N/NC(N)=S)cc1`, the activity at 10 µM came out at 16.5% in data set [1] and 82.3% in data set [2]. Moreover, the IC50 in data set [3] is over 10 µM; in data set [4] it was 1.82 µM; on Acetylcholinesterase, 35.3 µM. The inhibition constant Ki in [12] was determined as 0.97 µM. The activity at 3.6 µM in data set [13] was determined as 34.7%; in data set [14], 70.3%. Besides, the Papp at 16 h, 100 ug/ml in [5] turned out to be 10.1 ×10⁻⁶ cm/s.

As to `Cc1cccc(N2CC(CO)OC2=O)c1` (stereo not given) [TOLOXATONE], the activity at 2 µM stood at 30.7% in [15] and 74% in data set [16].

As to `NC(=S)N/N=C/c1ccc(O)cc1`, the activity at 10 µM in [1] came to 66%; in data set [2], 87.5%. For the same molecule, the half-inhibitory concentration (IC50) in [3] was over 10 µM; in data set [4] it was over 10 µM; at Acetylcholinesterase it was over 40 µM.

Regarding `NC(=S)N/N=C/c1ccccc1` [PHENYLTHIOSEMICARBAZONE], the activity at 10 µM in data set [1] turned out to be 83.5%; in data set [2], 75.5%. For the same molecule, the IC50 in [3] is over 10 µM; in data set [4], over 10 µM; at Acetylcholinesterase, over 40 µM.

On to `N=C(S)N/N=C/c1ccc(C(F)(F)F)cc1`, for which the activity at 10 µM stood at 92.5% in data set [1] and 77.5% in data set [2]. Besides, the half-inhibitory concentration (IC50) was over 10 µM in data set [3], over 10 µM in [4] and 36.2 µM against Acetylcholinesterase.

As to `C#CCN(C)CCCOc1ccc(Cl)cc1Cl` [CLORGILINE], the activity at 0.014 µM in [17] stood at 21.4%; in [18] it was 19.8%.

As for `Cc1ccc(/C=N/NC(N)=S)cc1`, the activity at 10 µM in [1] worked out at 56.5%; in [2], 91.5%. The IC50 in data set [3] is over 10 µM; in [4], over 10 µM; at Acetylcholinesterase it was over 40 µM.
